Assay results: publication PMC3764137, “Sulphamoylated 2-Methoxyestradiol Analogues Induce Apoptosis in Adenocarcinoma Cell Lines” (PLoS ONE, 2013)
“Also recorded” adds a separate entry of the source.

Legend:
[1] = system: HeLa cells; test: Double immunofluorescence of intracellular microtubules; format: cell-based, human; details: 24 h, 0.189 μM ESE-15-one, 0.5 μM EMBS and ESE-16, 1μM colchicine
Procedure: (§1) In order to visualize the effect of the 2ME2 analogues on microtubule dynamics and integrity, a double immunofluorescence technique using antibodies against tyrosinated and detyrsosinated tubulin was conducted as described by Paturle-Lafanechère et al. (2004). HeLa and MDA-MB-231 cells were seeded onto sterilized coverslips and allowed to grow to 80% confluency for 48 h. Cells were exposed to 0.189 μM ESE-15-one, 0.5 μM EMBS and ESE-16 along with DMSO (negative control) and 1μM colchicine as a positive control for 24 h. Cells were permeablised permeabilized with warmed OPT buffer (80 mmol/L Pipes, […], […], 0.5% Triton X-100 and glycerol 10%, pH 6.8), followed by fixation in ice-cold methanol at −20°C and were subsequently incubated with the primary antibody cocktail (PBS containing anti-detyrosinated tubulin (L4), anti-[…], BSA 0.3%, tween 0.1%). After incubation, cells were incubated with the secondary antibodies, namely Alexa 488 (Invitrogen) and Cy3 (Jackson ImmunoResearch laboratories). Samples were visualized using a Zeiss AxioImager Z1 microscope controlled by Axiovision softwared (Carl Zeiss) (X63 oil objective). Images were captured using an Ocra R2 N/B camera (Hamamatsu) and assessed for microtubule integrity and ratio of tyrosinated to detyrosinated tubulin.

[2] = system: MDA-MB-231 cells; test: as above; format: cell-based, human; details: MDA-MB-231, 24 h; 0.189 μM ESE-15-one, 0.5 μM EMBS and ESE-16, 1μM colchicine
Procedure: as §1

[3] = system: tubulin; test: Tubulin polymerization assay (DAPI fluorescence); format: biochemical; details: for EC50: in vitro tubulin polymerization, read-out: tubulin polymerization inhibition EC50
Procedure: Briefly, microtubule assembly was conducted in a half area 96 well black plate using a microplate reader FLUOstar OPTIMA (BMG Labtechnologies). […] Following 10 min incubation, assembly was initiated by injection of GTP and MgCl2 to a final concentration of 1 mM and 5 mM respectively, yielding a reaction volume of 100 µl. The excitation and emission wavelengths were set at 360 and 450 nm, respectively, and the fluorescence of microtubule-bound DAPI was monitored as a function of time at 37°C. Fluorescence signal at time 0 for each well was subtracted from each of the subsequent fluorescence readings, [22].

[4] = system: caspase-6; test: Caspase 6 colorimetric assay; format: cell-based, human; details: 0.5 μM, 24 h
Procedure: (§2) Possible activation of caspase 3, -6 and -8 was investigated by means of caspase 3, caspase 6 and FLICE/caspase 8 colorimetric kits, respectively. Cells (1,000,000) were seeded with an overnight attachment policy. After 24 h of exposure to 0.5 μM of the sulphamoylated 2ME2 analogues, cells were detached with trypsin and centrifuged at 13,000× g. Cells (500,000) were resuspended in 50 µl of chilled cell lysis buffer and incubated on ice for 10 min. Cells were centrifuged at 10,000×g for a min. Supernatant was transferred to a fresh tube and put on ice. After determination of the protein concentration using the bicinchoninic acid (BCA) protein assay (Thermo Fisher Scientific, Johannesburg, South Africa), 100 µg protein/50 µl cell lysis buffer was mixed with 50 µl 2X reaction buffer (containing 10 mM Dithiothreitol (DTT)). Ac-Asp-Glu-Val-Asp-p-nitroanilide (Ac-DEVD-pNA) (5 µl of 4 mM) (caspase-3-specific substrate), or 5 µl 4 mM […] (Ac-VEID-pNA) (caspase-6-specific substrate), or 5 µl 4 mM Ac-Ile-Glu-Thr-Asp-p-nitroanilide (Ac-IETD-pNA) (caspase-8-specific substrate) was added and the mixture was incubated at 37°C for 120 min (200 µM final concentration). Absorbance was determined at 405 nm on the ELx800 Universal Microplate Reader available from Bio-Tek Instruments Inc. (Vermont, United States of America).

[5] = system: HeLa cells; test: Cell morphology by transmission electron microscopy; format: cell-based, human; details: 24 h
Procedure: The in vitro influence of ESE-15-one, EMBS and ESE-16 on cell morphology was determined after exposure for 24 h using transmission electron microscopy (TEM). […] After each fixation step the samples were rinsed 3 times in 0.0075 M sodium phosphate buffer (pH 7.4). Samples were dehydrated using increasing concentrations of ethanol (30%, 50%, 70%, 90%, and 3×100%) and embedded in Quetol resin, sectioned with a microtome and placed on copper discs. Sections were contrasted with 4% aqueous uranyl acetate and Reynolds' lead citrate and viewed with a JOEL JEM 2100F transmission electron microscope (Electron Microscopy Unit, University of Pretoria, South Africa).

[6] = system: HeLa cells; test: Mitochondrial membrane potential assay (Mitocapture, flow cytometry); format: cell-based, human; details: 0.5 μM analogues (2-methoxyestradiol-bis-sulphamate 0.55 μM), 24 h
Procedure: Cells (500,000) were seeded with an overnight attachment policy. After 24 h of exposure to 0.5 μM of the sulphamoylated 2ME2 analogues, cells were detached using trypsin and centrifuged at 13,000×g.

[7] = system: HeLa cells; test: Cell number determination by crystal violet staining; format: cell-based, human; details: for cell growth: 24 h
Procedure: Crystal violet is a method used to determine the number of cells by staining the deoxyribonucleic acid (DNA). Gillies et al. (1986) used crystal violet to quantify cell number in monolayer cultures as a function of the absorbance of the dye taken up by the cells. A dose-dependent study was chosen with a concentration range of 0.1–25 μM since it was previously observed in our laboratory that this concentration series exerts antiproliferative activity in HeLa cells. Exponentially growing HeLa cells were seeded in 96 well tissue culture plates at a cell density of 5,000 cells per well. Cells were incubated at 37°C in a humidified atmosphere containing 5% CO2 for 24 h to allow for attachment. To establish the starting number of cells, a baseline determination was conducted before exposure. Subsequently, the medium was discarded and cells were exposed to the sulphamoylated 2ME2 analogues at a concentration series of 0.1–25 μM for the 24 h at 37°C. Vehicle-treated controls were also included. Cells were fixed with 100 µl of 1% gluteraldehyde (incubation for 15 min at room temperature). Gluteraldehyde was discarded and cells were stained using 100 µl 0.1% crystal violet (incubated at room temperature for 30 min). Excedent crystal violet was discarded and the 96 well plate was submersed under running water. Cells were solubilized using 200 µl 0.2% Triton X-100 and incubated at room temperature for 30 min. Solution (100 µl) was transferred to a new microtitre plate. Afterwards, the absorbance was determined at 570 nm using an ELx800 Universal Microplate Reader available from Bio-Tek Instruments Inc. (Vermont, United States of America).

[8] = system: HeLa cells; test: Cytochrome c release (FlowCellect, flow cytometry); format: cell-based, human; details: 0.5 μM analogues (2-methoxyestradiol-bis-sulphamate 0.55 μM), 24 h
Procedure: (§3) This kit utilizes a unique set of buffers that selectively permeabilizes the […] without affecting the mitochondrial membrane. […] Cells (500,000) were seeded with an overnight attachment policy. After 24 h of exposure to 0.5 μM of the sulphamoylated 2ME2 analogues, cells were detached using trypsin and centrifuged at 13,000×g. Cells (500,000) were resuspended in PBS, centrifuged and resuspended in permeabilization buffer (according to supplier's instructions) for 10 min on ice. Subsequently cells were centrifuged, resuspended in 100 µl fixation buffer (according to supplier's instructions) for 20 min at room temperature, centrifuged again and resuspended in blocking buffer (150 µl). After another centrifugation step, cells were centrifuged and resuspended in blocking buffer (twice). Anti-cytochrome c-FITC (10 µl) was added to each sample and samples were incubated for 30 min at room temperature. Cells were centrifuged and blocking buffer (100 µl) was added. After centrifugation, blocking buffer (200 µl) was added to the samples for analysis via flow cytometry (FC500 System flow cytometer, Beckman Coulter South Africa (Pty) Ltd). Cells presenting with cytochrome c release were detected in the fluorescein isothiocyanate (FITC) channel (FL1) showing diffused green fluorescence. Data from at least 10 000 cells were analyzed by means of Cyflogic version 1.2.1 software (Pertu Therho, Turko, Finland).

[9] = system: MDA-MB-231 cells; test: Cytochrome c release (FlowCellect, flow cytometry); format: cell-based, human; details: MDA-MB-231, 0.5 μM analogues (2-methoxyestradiol-bis-sulphamate 0.55 μM), 24 h
Procedure: as §3

[10] = system: caspase-8; test: FLICE/caspase 8 colorimetric assay; format: cell-based, human; details: 0.5 μM, 24 h
Procedure: as §2

[11] = system: caspase 3; details: HeLa cells; another study conducted in our laboratory (data not shown); cited from earlier work
[12] = system: MDA-MB-231; details: 500 nM, 72 hours of exposure; ref 13 (Foster et al. 2008); cited from earlier work
[13] = system: MCF-7 cell line; details: cited from earlier work
[14] = system: human umbilical vein endothelial cells (HUVECs); details: 500 nM, 72 hours of exposure; ref 13 (Foster et al. 2008); cited from earlier work

Compound	microtubule integrity [1]	microtubule integrity [2]	effect on tubulin polymerization ([3]; in vitro)	EC50 [3]	caspase-6 activity ratio compared to vehicle-treated cells [4]	apoptotic bodies (TEM) [5]	vacuoles (TEM) [5]	cell shrinkage (TEM) ([5]; compared to vehicle-treated cells)	cells with reduced mitochondrial potential [6]	cell growth ([7]; 0.1 µM)	cell growth ([7]; 0.5 µM, compared to vehicle-treated cells)	concentration that significantly inhibits HeLa proliferation ([7]; 24 h of exposure)	Cytochrome c in cytoplasm (cells with cytochrome c release) [8]	Cytochrome c in cytoplasm (cells with cytochrome c release) [9]	caspase-8 activity increase compared to vehicle-treated cells [10]	caspase 3 activity increase [11]	inner mitochondrial membrane potential [12]	concentration with antiproliferative activity [13]	inner mitochondrial membrane potential [14]
COc1cc2c(c(OC)c1OC)-c1ccc(OC)c(=O)cc1[C@@H](NC(C)=O)CC2 [colchicine, reference compound]	only fragments of detyrosinated microtubules remaining; also recorded: complete microtubule depolymerisation	complete microtubule depolymerisation																	
CCc1cc2c(cc1OS(N)(=O)=O)CC[C@@H]1[C@@H]2CC[C@]2(C)C=CC[C@@H]12 [ESE-16, 2-ethyl-3-O-sulphamoyl-estra-1,3,5 (10) 16-tetraene]	microtubule abrogation; also recorded: complete microtubule depolymerisation	detyrosinated microtubule fragments	more pronounced effect on tubulin polymerization; also recorded: pronounced effect comparable with that of colchicine	5 µM	3.2	Apoptotic bodies were observed	vacuoles	shrunken	68.43%	45.59%	45.30%	0.5 µM	10%	30%	1.7 fold	8 fold			
COc1cc2c(cc1OS(N)(=O)=O)CC[C@@H]1[C@@H]2CC[C@]2(C)[C@@H](OS(N)(=O)=O)CC[C@@H]12 [2-methoxyestradiol-bis-sulphamate, reference compound]				11 µM		Apoptotic bodies were observed	vacuoles										depolarized	0.1 to 1 µM	depolarized
